Measurements taken from patent US20250064809A1, “Inhibitors of Mutant RET Kinases for use in Treating Cancer” (Stemline Therapeutics, Inc., priority 2021, published 2025).

How the values were obtained:
[1] = test system: Ba/F3 KIF5B-RET-G810R; test: In vitro cell viability assay (CellTiter-Glo); type: cell-based; conditions: Mus musculus, BaF3, 72 h, 3 days
[2] = test system: Ba/F3 KIF5B-RET-G810C; test: In vitro cell viability assay (CellTiter-Glo); type: cell-based; conditions: Mus musculus, BaF3, 72 h, 3 days
[3] = test system: Ba/F3 KIF5B-RET-G810S; test: In vitro cell viability assay (CellTiter-Glo); type: cell-based; conditions: Mus musculus, BaF3, 72 h, 3 days
[4] = test system: Ba/F3 KIF5B-RET; test: In vitro cell viability assay (CellTiter-Glo); type: cell-based; conditions: Mus musculus, BaF3, 72 h; Ba/F3 KIF5B-RET (wild type RET), 3 days
[5] = test system: Ba/F3 cells expressing KIF5B-RET with a G810 RET mutant domain; test: In vitro cell viability assay, mutant RET kinase cell lines compared to wild type; type: cell-based, mouse; conditions: Ba/F3 KIF5B-RET G810R, G810C, G810S versus wild type

Structure (SMILES)	IC50 [1] [µM]	IC50 [2] [µM]	IC50 [3] [µM]	IC50 [4] [µM]	increase in IC50 values against mutant RET kinase cell lines as compared to wild type RET kinase cell lines [5]
CO[C@]1(C(=O)N[C@@H](C)c2ccc(-n3cc(F)cn3)nc2)CC[C@H](c2nc(C)cc(Nc3cc(C)[nH]n3)n2)CC1 [Pralsetinib, pralsetinib]	1.3	0.551	0.0905	0.0296	3-44 fold
COc1ccc(CN2C3CC2CN(c2ccc(-c4cc(OCC(C)(C)O)cn5ncc(C#N)c45)cn2)C3)cn1 [Selpercatinib, selpercatinib]	0.986	1.08	0.204	0.0244	8-44 fold
